Results published in article PMC12698583, “Efficacy of sulfonamides targeting malic enzyme in an animal model of Chagas disease” (Frontiers in Pharmacology, 2025).

Legend:
Kinetic solubility = format: physicochemical; conditions: 25 °C
Description: These conditions simulate stomach acidity, plasma neutrality, and intestinal basicity.
For the chemical stability experiment, the compounds were evaluated under the same conditions with an additional incubation at 37 °C for a period of 24 h. The analysis was performed using an analytical method developed and validated by high-performance liquid chromatography with UV detection (HPLC-UV). Compounds were quantified in different pH media by comparing the areas where the substances were completely soluble with those in the reaction media. The experiments were performed in a triplicate.
These conditions simulate stomach acidity, plasma neutrality, and intestinal basicity. […] For the chemical stability experiment, the compounds were evaluated under the same conditions with an additional incubation at 37°C for a period of 24 hours. The analysis was performed using an analytical method developed and validated by high-performance liquid chromatography with UV detection (HPLC-UV). Compounds were quantified in the different pH media by comparing the areas where the substances were completely soluble with those in the reaction media. The experiments were performed in triplicate.

in vitro = in vitro ADME; conditions: for Papp at 5 h, 100 μM: PAMPA
Description: The parallel artificial membrane permeability assay (PAMPA) was performed using a 96-well pre-coated plate system (Corning® BioCoat™ PAMPA Plate System). […] A total of 200 µL of each solution was added to donor wells, while 300 µL of PBS was placed in the corresponding acceptor wells. The plates were assembled and incubated at 37 °C for 5 h. Aliquots of the initial donor solution (T0) were collected before incubation and stored at −20 °C. At the end of the incubation, samples from donor and acceptor compartments were transferred to tubes containing 30% (v/v) acetonitrile and processed under identical conditions. Compound concentrations in donor, acceptor, and T0 samples were quantified by high-performance liquid chromatography with ultraviolet detection (HPLC-UV) using validated chromatographic conditions. The apparent permeability coefficient (Papp) was calculated using the standard PAMPA equation, shown below. All experiments were performed in a trplicate.
The Papp equation is: Papp=−VD+VA/At VD+VAln 1−CA t/Ceq

[1] = across pH conditions (1.7, 7.4, 8.9)
[2] = pH 5.5, PAMPA pH 5,5 Papp - lower
[3] = pH 5.5, PAMPA pH 5,5 Papp - upper
[4] = pH 7.4, PAMPA pH 7,4 Papp - lower
[5] = pH 7.4, PAMPA pH 7,4 Papp - upper

Kinetic solubility (Kinetic solubility; acidic pH (1.7), 5 µM) [%]	Kinetic solubility (Kinetic solubility; [1])	Kinetic solubility (Kinetic solubility; basic pH (8.9), 5 µM) [%]	Kinetic solubility (Kinetic solubility; neutral pH (7.4), 5 µM) [%]	Papp at 5 h, 100 μM (in vitro; [2]) [×10⁻⁶ cm/s]	Papp at 5 h, 100 μM (in vitro; [3]) [×10⁻⁶ cm/s]	Papp at 5 h, 100 μM (in vitro; [4]) [×10⁻⁶ cm/s]	Papp at 5 h, 100 μM (in vitro; [5]) [×10⁻⁶ cm/s]	PAMPA Papp at pH 5.5 (in vitro; pH 5.5)	Papp at 5 h, 100 μM (in vitro; pH 7.4, PAMPA Papp at pH 7.4) [×10⁻⁶ cm/s]	SMILES
65	above 60%	74	65	3.4	4.4	9.1	9.6	3.4–4.5 × 10^−6	–	CC(C)Oc1ccc(NS(=O)(=O)c2cccc(NC(=O)c3cnccn3)c2)cc1 [AC-M110, N-(3-(N-(4-isopropoxyphenyl)sulfamoyl)phenyl)pyrazine-2-carboxamide]
75	above 60%	75	75	40.5	56	92	86	–	92	COc1ccc(NS(=O)(=O)c2cccc(NC(=O)c3cnccn3)c2)cc1 [AC-R008, N-(3-(N-(4-methoxyphenyl)sulfamoyl)phenyl)pyrazine-2-carboxamide]
